Results from US20060233743A1, “Compositions and methods of therapy” (priority 2002, published 2006).

Assays:
[1] = tested on: cells of the immune system; experiment: release of IL-10 from cells of the immune system in the presence of GMCSF; type: cell-based
PDE = settings: cited from earlier work
U937 cells = experiment: Example 5: IL-10 and TNFα mRNA in U937 cells; type: cell-based, human; settings: differentiation, PMA 2×10^−7 M
Method: U937 (human monocyte cell line) cells were grown in RPMI (PAA Laboratories) medium with 10% fetal calf serum added (PAA Laboratories). Cells were treated with prostaglandin E2 at 10^−6 Molar, Rolipram 10^−6 Molar, Forskolin 50×10^−6 Molar with or without GMCSF at 5 ng/ml for 48 hours. Cells were pelleted and the mRNA was extracted with Tri reagent (Sigma, Poole, UK). Total RNA was obtained by addition of chloroform and subsequent isopropanol precipitation. RNA was reverse transcribed with reverse transcriptase (Applied Biosystems) and random hexamers (Applied Biosystems). Probes and primers for amplification and detection of IL-10 were designed using Primer Express (Applied Biosystems) and are as follows:
As for Example 4 but mRNA for TNFα alpha is also included.
Data is shown as the ratio of IL-10 mRNA/TNFα mRNA. P═PMA=Phorbol myristoyl acetate; F=Fsk=Forskolin, g=GMCSF, C=vehicle control.

type IV PDE = type IV PDE inhibitor; cited from earlier work

For 19-hydroxy PGE, which “stimulation of IL-10” value [1] is on record?
Its value is “increased strikingly”.

For `CC(C)Cn1c(=O)n(C)c(=O)c2[nH]cnc21` [IBMX, 3-isobutyl-1-methylxanthine], which IC50 (PDE; non-specific PDE inhibitor) is on record?
Its IC50 is 2 to 50 µM.

Which “stimulation of IL-10” value [1] does the source give for `CCCCC[C@H](O)/C=C/[C@H]1[C@H](O)CC(=O)[C@@H]1C/C=C\CCCC(=O)O` [PGE, prostaglandin E2] here?
The value was “increased strikingly”.

For `CCCCCCCCCCCCCC(=O)O[C@@H]1[C@@H](C)[C@@]2(O)[C@@H](C=C(CO)C[C@]3(O)C(=O)C(C)=C[C@@H]23)[C@@H]2C(C)(C)[C@]12OC(C)=O` [PMA, Phorbol myristoyl acetate], which “IL-10 mRNA” value (U937 cells) is on record?
The value was “increased”.

And the “TNFα mRNA” value (U937 cells; Forskolin 50×10^−6 Molar, GMCSF 5 ng/ml)?
The value was “also increased”.

For `CCCCOc1cc(CC2CNC(=O)N2)ccc1OC` (centres unmarked) [Ro-20-1724, 4-[3-butoxy-4-methoxybenzyl]-2-imidazolidinone], which IC50 (type IV PDE) is on record?
Its IC50 is 2 µM.

With `COc1ccc(C2CNC(=O)C2)cc1OC1CCCC1` (centres unmarked) [rolipram, 4-[3-cyclopentyloxy-4-methoxyphenyl]-2-pyrrolidinone] as the molecule, how does the IC50 (type IV PDE) read?
The IC50 was 0.8 µM.

With `Cn1c(=O)c2[nH]cnc2n(C)c1=O` [theophylline] as the molecule, how does the “times less effective than rolipram” value (PDE; non-selective inhibitor compared with rolipram) read?
Its value is 30 times.
